# From PMC11597774, “Investigation of Antimicrobial and Anti-Inflammatory Efficacy of Newly Synthesized Pyrogallol-Coumarin Hybrids: In Vitro and In Silico Studies” (Pharmaceutics, 2024)
# Like-named read-outs stand apart in the source and are kept apart here.
# Key:
# E. coli = assay: Microdilution MIC/MMC with resazurin; format: cell-based, Escherichia coli; conditions: for MIC: Escherichia coli
# Experimental: (§1) The antimicrobial activity of PCH-1 and PCH-2 was tested against 13 microorganisms. The experiment included four standard strains, Staphylococcus aureus ATCC 6538, Bacillus subtilis ATCC 6633, Proteus mirabilis ATCC 12453, and Pseudomonas aeruginosa ATCC 27853; five isolates, Staphylococcus aureus, Escherichia coli, Salmonella enterica, Klebsiella pneumoniae, and Bacillus subtilis; and one probiotic strain Lactobacillus plantarum 299V. Additionally, three fungal strains were tested, including one standard strain, Candida albicans ATCC 10231, and two isolates, Saccharomyces cerevisiae and probiotic strain Saccharomyces boulardii.
# (§2) The bacterial suspensions were prepared using the direct colony method. The turbidity of the initial suspension was adjusted using a densitometer (DEN-1, BioSan, Latvia). When adjusted to the turbidity of the 0.5 McFarland standard, the bacterial suspension contains approximately 10^8 colony-forming units (CFU)/mL, and the yeast suspension contains approximately 10^6 CFU/mL. For the experiment, the initial suspension was further diluted at a 1:100 ratio in a sterile 0.85% saline solution.
# (§3) The antimicrobial activity was assessed by determining the minimum inhibitory concentrations (MICs) and minimum microbicidal concentrations (MMCs) using the microdilution plate method with resazurin (Alfa Aesar GmbH & Co. (KG, Karlsruhe, Germany)). For this, 96-well plates were prepared by adding 100 μL of Mueller Hinton broth (Torlak, Belgrade, Serbia) for bacterial tests and Sabouraud broth (Torlak, Belgrade, Serbia) for yeast into each well. The tested PCH-1 and PCH-2 were dissolved in 10% dimethyl sulfoxide (DMSO) and then diluted into sterile distilled water. A 100 μL sample from the stock solution of the tested compound was then added to the first row of the plate, followed by twofold serial dilutions using a multichannel pipette. This produced a concentration range from 2.69 to 0.0025 µmol/L. The method is described in detail in the reported paper.
# (§4) Each test setup included growth control and sterility control. […] Minimum microbicidal concentrations (MMCs) were determined as described in detail in the reported paper.
# S. aureus ATCC 25923 [1] = assay: Inhibition of biofilm formation (crystal violet); format: cell-based, Staphylococcus aureus; conditions: for BIC90: S. aureus ATCC 25923, 48 h
# P. aeruginosa ATCC 27853 [2] = assay: Microdilution MIC/MMC with resazurin; format: cell-based, Pseudomonas aeruginosa; conditions: for MIC: Pseudomonas aeruginosa, ATCC27853
# Experimental: as §1, §2, §3, §4
# S. aureus (isolate) = assay: Microdilution MIC/MMC with resazurin; format: cell-based, Staphylococcus aureus; conditions: for MIC: Staphylococcus aureus
# Experimental: as §1, §2, §3, §4
# S. boulardii = assay: Microdilution MIC/MMC with resazurin; format: cell-based, Saccharomyces boulardii; conditions: for MIC: Saccharomyces cerevisiae
# Experimental: as §1, §2, §3, §4
# P. mirabilis ATCC 12453 = assay: Microdilution MIC/MMC with resazurin; format: cell-based, Proteus mirabilis; conditions: for MIC: Proteus mirabilis, ATCC12453
# Experimental: as §1, §2, §3, §4
# S. aureus ATCC 25923 [3] = assay: Microdilution MIC/MMC with resazurin; format: cell-based, Staphylococcus aureus; conditions: for MIC: Staphylococcus aureus, ATCC25923
# L. plantarum 299V = assay: Microdilution MIC/MMC with resazurin; format: cell-based, Lactobacillus plantarum; conditions: for MIC: Lactiplantibacillus plantarum
# Experimental: as §1, §2, §3, §4
# P. aeruginosa ATCC 27853 [4] = assay: Inhibition of biofilm formation (crystal violet); format: cell-based, Pseudomonas aeruginosa; conditions: for BIC90: P. aeruginosa ATCC 27853, 48 h; for IC50: Pseudomonas aeruginosa, ATCC27853, P. aeruginosa ATCC 27853, 48 h, read-out: BIC50
# Experimental: The ability of S. aureus ATCC 6538, P. mirabilis ATCC 12453, and P. aeruginosa ATCC 27853 to form biofilms was assayed as described by O’Toole et al. (2000), with some modifications. Briefly, tissue culture 96-well microtiter plates (Sarstedt, Germany) were prepared by dispensing 100 µL of nutrient broth (i.e., Mueller Hinton broth) into each well. Then, 10 µL of spore suspension (1.0 McFarland for Gram-positive bacteria and 0.5 McFarland for Gram-negative bacteria) was added to each row. To encourage biofilm formation, all plates were incubated at 37 °C for 48 h, after which the content of each well was emptied and washed twice with 200 µL of sterile 0.85% saline to remove non-adherent cells. The biofilms formed were fixed by adding 100 µL of methanol until it evaporated completely, then stained with 0.1% (w/v) crystal violet (Fluka AG, Buchs, Switzerland) and left at room temperature for 20 min. The excess stain was washed away with deionized water, followed by […] of 96% ethanol. The optical densities (ODs) of the stained biofilms were measured with an ELISA plate reader (RT-2100C, Rayto, Shenzhen, China) at 630 nm. Control wells containing only broth were included to verify sterility and prevent nonspecific media binding. To account for background absorbance, OD readings from sterile medium, fixative, and dye were averaged and subtracted from all test measurements. All tests were conducted in duplicate. The tissue culture 96-well microtiter plates (Sarstedt, Germany) were prepared by dispensing 100 µL of nutrient broth (i.e., Mueller Hinton broth) into each well. From the stock solutions of tested PCH-1 and PCH-2 (at a concentration of 5.4 µmol/L), 100 µL was added to the first row of the microtiter plate. Twofold serial dilutions were then performed, followed by the addition of 10 µL of bacterial suspension to each well. The turbidity of the bacterial suspension was 0.5 McFarland for Gram-negative bacteria and 1.0 McFarland for Gram-positive bacteria. The microtiter plates prepared in this way were incubated at 37 °C for 48 h. The remaining steps of the experiment were carried out as outlined below. […] Only broth or broth with tested PCH-1 and PCH-2 served as controls to check sterility and nonspecific binding of media. To compensate for background absorbance, OD readings from sterile medium, extracts, fixative, and dye were averaged and subtracted from all test values. All tests were performed in duplicate.
# S. cerevisiae = assay: Microdilution MIC/MMC with resazurin; format: cell-based, Saccharomyces cerevisiae; conditions: for MIC: Saccharomyces cerevisiae
# Experimental: as §1, §2, §3, §4
# [5] = Staphylococcus aureus, ATCC25923, S. aureus ATCC 25923, 48 h, read-out: BIC50
compound,measurement,setting,value
"C/C(NNC(=O)c1ccc(O)c(O)c1O)=C1\C(=O)Oc2ccccc2C1=O [PCH-1, (E)-N′-(1-(2,4-dioxochroman-3-ylidene)ethyl)-2,3,4-trihydroxybenzohydrazide]",MMC,E. coli,0.34 mM
same,MIC,E. coli,340 µM
same,BIC90,S. aureus ATCC 25923 [1],˃2.70 mM
same,IC50,S. aureus ATCC 25923 [1]; [5],> 2700 µM
same,MMC,P. aeruginosa ATCC 27853 [2],0.34 mM
same,MIC,P. aeruginosa ATCC 27853 [2],340 µM
same,MMC,S. aureus (isolate),2.70 mM
same,MIC,S. aureus (isolate),2700 µM
same,MMC,S. boulardii,2.70 mM
same,MIC,S. boulardii,1350 µM
same,MMC,P. mirabilis ATCC 12453,0.17 mM
same,MIC,P. mirabilis ATCC 12453,80 µM
same,MMC,S. aureus ATCC 25923 [3],0.17 mM
same,MIC,S. aureus ATCC 25923 [3],170 µM
same,MMC,L. plantarum 299V,2.70 mM
same,MIC,L. plantarum 299V,2700 µM
same,BIC90,P. aeruginosa ATCC 27853 [4],˃2.70 mM
same,IC50,P. aeruginosa ATCC 27853 [4],> 2700 µM
same,MMC,S. cerevisiae,2.70 mM
same,MIC,S. cerevisiae,1350 µM
"C/C(NNC(=O)c1cc(O)c(O)c(O)c1)=C1\C(=O)Oc2ccccc2C1=O [PCH-2, (E)-N′-(1-(2,4-dioxochroman-3-ylidene)ethyl)-3,4,5-trihydroxybenzohydrazide]",MMC,E. coli,0.34 mM
same,MIC,E. coli,170 µM
same,IC50,"S. aureus ATCC 25923 [1]; ATCC25923, Staphylococcus aureus ATCC 25923, read-out: BIC50",378 µg/mL
same,BIC90,S. aureus ATCC 25923 [1],˃2.70 mM
same,IC50,S. aureus ATCC 25923 [1]; [5],1020 µM
same,MMC,P. aeruginosa ATCC 27853 [2],0.67 mM
same,MIC,P. aeruginosa ATCC 27853 [2],340 µM
same,MMC,S. aureus (isolate),1.35 mM
same,MIC,S. aureus (isolate),1350 µM
same,MMC,S. boulardii,2.70 mM
same,MIC,S. boulardii,2700 µM
same,MMC,P. mirabilis ATCC 12453,0.17 mM
same,MIC,P. mirabilis ATCC 12453,80 µM
same,MMC,S. aureus ATCC 25923 [3],0.34 mM
same,MIC,S. aureus ATCC 25923 [3],80 µM
same,MMC,L. plantarum 299V,0.67 mM
same,MIC,L. plantarum 299V,670 µM
same,BIC90,P. aeruginosa ATCC 27853 [4],˃2.70 mM
same,IC50,P. aeruginosa ATCC 27853 [4],> 2700 µM
same,MMC,S. cerevisiae,2.70 mM
same,MIC,S. cerevisiae,1350 µM
